One test addresses human TLR8 (Homo sapiens (Human), UniProt Q9NR97). In words: TLR8 inhibition reporter assay (HEK-Blue SEAP reporter, R848 stimulation).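 Note: SEAP driven by IFN-β minimal promoter with NF-κB and AP-1 sites, 22 h incubation, compounds 0.05 nM–50 µM, inhibition scaled between agonist plus DMSO and reference inhibitor wells.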 The note with it: read-out: TLR8 IC50; HEK-Blue cells overexpressing human TLR8, R848 15.9 μM, SEAP reporter.
In a further test the target is human TLR9 (Homo sapiens (Human), UniProt Q9NR96). In words: TLR9 inhibition reporter assay (HEK-Blue SEAP reporter, ODN2006 stimulation).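 Note: SEAP reporter under IFN-β minimal promoter with five NF-κB and AP-1 sites, 22 h incubation, compounds 0.05 nM–50 µM, inhibition relative to agonist plus DMSO versus known inhibitor.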 The note with it: read-out: TLR9 IC50; HEK-Blue cells overexpressing human TLR9, ODN2006 5 nM, SEAP reporter.
In a further test the target is human TLR7 (Homo sapiens (Human), UniProt Q9NYK1). In words: TLR7 inhibition reporter assay (HEK-Blue SEAP reporter, gardiquimod stimulation). It is filed as cell-based. Conditions: HEK-Blue cells overexpressing human TLR7, gardiquimod 7.5 μM. (In general: Reporter assays use an easily measured gene product as a stand-in for the process of interest.)
Chain of human TLR7 (Q9NYK1 27-1049): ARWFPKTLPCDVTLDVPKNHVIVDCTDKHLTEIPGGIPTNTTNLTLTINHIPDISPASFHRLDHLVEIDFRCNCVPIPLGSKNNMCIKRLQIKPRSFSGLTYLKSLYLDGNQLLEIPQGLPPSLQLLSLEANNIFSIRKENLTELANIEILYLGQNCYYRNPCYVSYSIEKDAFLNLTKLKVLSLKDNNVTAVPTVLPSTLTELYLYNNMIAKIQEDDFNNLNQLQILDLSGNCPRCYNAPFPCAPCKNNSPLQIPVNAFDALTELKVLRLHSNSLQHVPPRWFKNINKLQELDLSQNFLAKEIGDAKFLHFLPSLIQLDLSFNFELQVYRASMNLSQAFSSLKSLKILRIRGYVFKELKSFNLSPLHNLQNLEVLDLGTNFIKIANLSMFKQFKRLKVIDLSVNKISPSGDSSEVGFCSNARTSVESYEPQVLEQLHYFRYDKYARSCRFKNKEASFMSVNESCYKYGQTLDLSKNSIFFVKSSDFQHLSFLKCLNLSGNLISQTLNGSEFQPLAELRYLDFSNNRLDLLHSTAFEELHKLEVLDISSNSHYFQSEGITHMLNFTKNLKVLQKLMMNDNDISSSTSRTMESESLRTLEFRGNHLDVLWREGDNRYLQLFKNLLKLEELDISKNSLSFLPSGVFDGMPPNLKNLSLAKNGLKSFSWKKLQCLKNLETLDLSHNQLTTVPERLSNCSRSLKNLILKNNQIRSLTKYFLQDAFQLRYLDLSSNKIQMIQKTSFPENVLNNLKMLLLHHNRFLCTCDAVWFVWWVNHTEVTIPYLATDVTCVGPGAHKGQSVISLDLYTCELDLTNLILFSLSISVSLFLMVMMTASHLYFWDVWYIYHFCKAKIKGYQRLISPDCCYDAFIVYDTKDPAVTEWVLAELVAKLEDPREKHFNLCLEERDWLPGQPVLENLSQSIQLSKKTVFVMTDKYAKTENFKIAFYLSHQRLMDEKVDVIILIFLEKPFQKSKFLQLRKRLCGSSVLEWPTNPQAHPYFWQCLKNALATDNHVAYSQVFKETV

Chain of human TLR9 (Q9NR96 26-1032): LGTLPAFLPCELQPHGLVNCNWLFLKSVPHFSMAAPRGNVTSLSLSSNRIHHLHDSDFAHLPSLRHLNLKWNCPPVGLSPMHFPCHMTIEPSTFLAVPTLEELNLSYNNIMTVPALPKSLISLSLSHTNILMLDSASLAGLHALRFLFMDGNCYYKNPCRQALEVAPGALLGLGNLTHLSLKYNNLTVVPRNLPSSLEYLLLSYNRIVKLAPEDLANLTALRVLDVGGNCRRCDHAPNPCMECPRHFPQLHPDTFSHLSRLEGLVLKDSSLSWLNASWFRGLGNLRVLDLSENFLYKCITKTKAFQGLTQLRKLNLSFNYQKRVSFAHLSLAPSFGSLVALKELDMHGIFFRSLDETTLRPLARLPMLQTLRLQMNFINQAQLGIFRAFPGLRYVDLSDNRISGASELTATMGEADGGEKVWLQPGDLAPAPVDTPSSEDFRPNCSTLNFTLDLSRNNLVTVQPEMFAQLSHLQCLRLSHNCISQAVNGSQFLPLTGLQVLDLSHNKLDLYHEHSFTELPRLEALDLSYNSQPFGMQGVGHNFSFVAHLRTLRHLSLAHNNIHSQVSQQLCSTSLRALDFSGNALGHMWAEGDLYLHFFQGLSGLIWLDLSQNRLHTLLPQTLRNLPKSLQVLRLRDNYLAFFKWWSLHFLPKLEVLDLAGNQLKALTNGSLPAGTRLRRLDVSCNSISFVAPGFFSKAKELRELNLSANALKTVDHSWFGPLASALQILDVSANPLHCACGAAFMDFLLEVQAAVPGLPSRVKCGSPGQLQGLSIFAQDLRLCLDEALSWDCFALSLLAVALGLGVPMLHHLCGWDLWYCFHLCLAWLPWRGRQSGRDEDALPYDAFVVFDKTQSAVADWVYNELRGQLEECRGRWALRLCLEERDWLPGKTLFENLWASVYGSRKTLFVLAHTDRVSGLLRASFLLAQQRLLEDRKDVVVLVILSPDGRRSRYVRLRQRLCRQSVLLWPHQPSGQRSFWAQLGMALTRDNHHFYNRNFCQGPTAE
Chain of human TLR8 (Q9NR97 27-1041): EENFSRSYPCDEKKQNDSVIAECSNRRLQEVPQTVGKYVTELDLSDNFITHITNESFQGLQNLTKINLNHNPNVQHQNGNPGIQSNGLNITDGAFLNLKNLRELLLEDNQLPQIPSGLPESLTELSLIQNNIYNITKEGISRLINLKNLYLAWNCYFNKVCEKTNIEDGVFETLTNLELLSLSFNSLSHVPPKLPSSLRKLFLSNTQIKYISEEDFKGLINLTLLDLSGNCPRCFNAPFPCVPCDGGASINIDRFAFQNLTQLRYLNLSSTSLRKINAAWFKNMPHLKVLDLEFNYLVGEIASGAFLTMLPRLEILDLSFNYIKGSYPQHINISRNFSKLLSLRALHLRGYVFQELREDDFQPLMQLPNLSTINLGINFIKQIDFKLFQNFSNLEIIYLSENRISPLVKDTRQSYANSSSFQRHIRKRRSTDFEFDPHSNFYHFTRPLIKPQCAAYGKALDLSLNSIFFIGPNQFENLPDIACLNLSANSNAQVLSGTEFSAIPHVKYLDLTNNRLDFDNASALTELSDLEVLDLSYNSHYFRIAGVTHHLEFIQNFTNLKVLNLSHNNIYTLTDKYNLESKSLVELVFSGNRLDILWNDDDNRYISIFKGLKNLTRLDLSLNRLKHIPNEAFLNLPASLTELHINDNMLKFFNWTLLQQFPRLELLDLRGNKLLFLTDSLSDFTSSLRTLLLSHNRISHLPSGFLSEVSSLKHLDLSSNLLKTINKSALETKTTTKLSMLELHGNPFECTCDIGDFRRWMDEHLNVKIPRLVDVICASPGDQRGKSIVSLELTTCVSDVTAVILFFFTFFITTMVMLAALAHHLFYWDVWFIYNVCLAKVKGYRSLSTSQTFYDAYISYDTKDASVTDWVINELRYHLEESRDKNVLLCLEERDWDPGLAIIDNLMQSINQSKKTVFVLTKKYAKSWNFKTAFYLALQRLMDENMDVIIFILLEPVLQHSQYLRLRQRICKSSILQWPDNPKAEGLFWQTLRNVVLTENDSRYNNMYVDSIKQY
Protocol for human TLR7: HEK-Blue™-cells (Invivogen) overexpressing human TLR7, TLR8 or TLR9 receptors were used for screening inhibitors of these receptors using an inducible SEAP (secreted embryonic alkaline phosphatase) reporter gene under the control of the IFN-β minimal promoter fused to five NF-κB and AP-1-binding sites. Briefly, cells are seeded into Greiner 384 well plates (15000 cells per well for TLR7, 20,000 for TLR8 and 25,000 for TLR9) and then treated with test compounds in DMSO to yield a final dose response concentration range of 0.05 nM-50 μM. After a 30 minute compound pre-treatment at room temperature, the cells are then stimulated with a TLR7 ligand (gardiquimod at a final concentration of 7.5 μM), TLR8 ligand (R848 at a final concentration of 15.9 μM) or TLR9 ligand (ODN2006 at a final concentration of 5 nM) to activate NF-κB and AP-1 which induce the production of SEAP. After a 22 hour incubation at 37° C., 5% CO2, SEAP levels are determined with the addition of HEK-Blue™ Detection reagent (Invivogen), a cell culture medium that allows for detection of SEAP, according to manufacturer's specifications.

One may read the IC50 as the concentration that gives 50% inhibition. `Cc1cc(-c2[nH]c3ccc(C(C)(C)C(=O)N[C@@H]4CCCNC4)cc3c2C(C)C)ccn1` [Example 140, (R)-2-(3-isopropyl-2-(2-methylpyridin-4-yl)-1H-indol-5-yl)-2-methyl-N-(piperidin-3-yl)propanamide]: the figures for the IC50 on human TLR8, at human TLR9 and against human TLR7 were 32 nM, 1220 nM and 40 nM, respectively.
On to `Cc1cc(-c2[nH]c3ccc(C(C)(C)C(=O)N[C@@H]4CCNC4)cc3c2C(C)C)ccn1` [Example 141, (R)-2-(3-isopropyl-2-(2-methylpyridin-4-yl)-1H-indol-5-yl)-2-methyl-N-(pyrrolidin-3-yl)propanamide], for which the IC50 on human TLR8 is 68 nM; at human TLR9 it was 895 nM; against human TLR7, 58 nM.
For the compound `Cc1cc(-c2[nH]c3ccc(C(C)(C)C(=O)NC4CN5CCC4CC5)cc3c2C(C)C)ccn1` (stereo not drawn) [Example 142, 2-(3-isopropyl-2-(2-methylpyridin-4-yl)-1H-indol-5-yl)-2-methyl-N-(quinuclidin-3-yl)propanamide], the figures for the IC50 at human TLR8, on human TLR9 and against human TLR7 were 120 nM, 790 nM and 16 nM, respectively.
In the case of `Cc1cc(-c2[nH]c3ccc(C(C)(C)C(=O)NC4CCNCC4)cc3c2C(C)C)ccn1` [Example 143, 2-(3-isopropyl-2-(2-methylpyridin-4-yl)-1H-indol-5-yl)-2-methyl-N-(piperidin-4-yl)propanamide], the IC50 on human TLR8 was found to be 147 nM; at human TLR9, 562 nM; at human TLR7, 35 nM.
Turning to `Cc1cc(-c2[nH]c3ccc(C(C)(C)C(=O)NC4CCC5CNCC54)cc3c2C(C)C)ccn1` (stereo not drawn) [Example 144, 2-(3-isopropyl-2-(2-methylpyridin-4-yl)-1H-indol-5-yl)-2-methyl-N-(octahydrocyclopenta[c]pyrrol-4-yl)propanamide], the IC50 on human TLR8 came to 64 nM; at human TLR9, 677 nM; on human TLR7 it was 26 nM.
Take `Cc1cc(-c2[nH]c3ccc(C(C)(C)C(=O)NC4CCN(C5CCNC5)CC4)cc3c2C(C)C)ccn1` (stereo not drawn) [Example 145, 2-(3-isopropyl-2-(2-methylpyridin-4-yl)-1H-indol-5-yl)-2-methyl-N-(1-(pyrrolidin-3-yl)piperidin-4-yl)propanamide]: the IC50 amounted to 783 nM on human TLR8, 4500 nM at human TLR9 and 554 nM at human TLR7.
For `Cc1cc(-c2[nH]c3ccc(C(C)(C)C(=O)NC4CCC5CNCC54)cc3c2C(C)C)ccn1` (stereo not drawn) [Example 146, 2-(3-isopropyl-2-(2-methylpyridin-4-yl)-1H-indol-5-yl)-2-methyl-N-(octahydrocyclopenta[c]pyrrol-4-yl)propanamide], in that order: 122 nM, 979 nM and 160 nM.
For the compound `Cc1cc(-c2[nH]c3ccc(C(C)(C)C(=O)NC4CCC5CNCC54)cc3c2C(C)C)ccn1` (stereo not drawn) [Example 147, 2-(3-isopropyl-2-(2-methylpyridin-4-yl)-1H-indol-5-yl)-2-methyl-N-(octahydrocyclopenta[c]pyrrol-4-yl)propanamide], the results for the IC50 at human TLR8, at human TLR9 and on human TLR7 were 92 nM, 1210 nM and 109 nM, respectively.
For `Cc1cc(-c2[nH]c3ccc(C(C)(C)C(=O)N4CC5CC(C4)C5N)cc3c2C(C)C)ccn1` (stereo not drawn) [Example 148, 1-(6-amino-3-azabicyclo[3.1.1]heptan-3-yl)-2-(3-isopropyl-2-(2-methylpyridin-4-yl)-1H-indol-5-yl)-2-methylpropan-1-one], in that order: 79 nM, 2640 nM and 88 nM.
For `Cc1cc(-c2[nH]c3ccc(C(C)(C)C(=O)N4CC5CN(C)CC5C4)cc3c2C(C)C)ccn1` (stereo not drawn) [Example 149, 2-(3-isopropyl-2-(2-methylpyridin-4-yl)-1H-indol-5-yl)-2-methyl-1-(5-methylhexahydropyrrolo[3,4-c]pyrrol-2(1H)-yl)propan-1-one], in that order: 277 nM, 3050 nM and 17 nM.
For `Cc1cc(-c2[nH]c3ccc(C(C)(C)C(=O)N4CCC5(CCN(C)C5)CC4)cc3c2C(C)C)ccn1` [Example 150, 2-(3-isopropyl-2-(2-methylpyridin-4-yl)-1H-indol-5-yl)-2-methyl-1-(2-methyl-2,8-diazaspiro[4.5]decan-8-yl)propan-1-one], in that order: 141 nM, 1490 nM and 22 nM.
Turning to `Cc1cc(-c2[nH]c3ccc(C(C)(C)C(=O)N4CCC(CN)C4)cc3c2C(C)C)ccn1` (stereo not drawn) [Example 151, 1-(3-(aminomethyl)pyrrolidin-1-yl)-2-(3-isopropyl-2-(2-methylpyridin-4-yl)-1H-indol-5-yl)-2-methylpropan-1-one], the IC50 stood at 175 nM on human TLR8, 7090 nM at human TLR9 and 72 nM on human TLR7.
Turning to `Cc1cc(-c2[nH]c3ccc(C(C)(C)C(=O)N4CCCC5(CCCCC5N)C4)cc3c2C(C)C)ccn1` (stereo not drawn) [Example 152, 1-(7-amino-2-azaspiro[5.5]undecan-2-yl)-2-(3-isopropyl-2-(2-methylpyridin-4-yl)-1H-indol-5-yl)-2-methylpropan-1-one], the IC50 at human TLR8 was determined as 46 nM; at human TLR9, 2640 nM; at human TLR7, 31 nM.
For `Cc1cc(-c2[nH]c3ccc(C(C)(C)C(=O)N4CCC(N)CC4)cc3c2C(C)C)ccn1` [Example 153, 1-(4-aminopiperidin-1-yl)-2-(3-isopropyl-2-(2-methylpyridin-4-yl)-1H-indol-5-yl)-2-methylpropan-1-one], in that order: 91 nM, 566 nM and 159 nM.
For `Cc1cc(-c2[nH]c3ccc(C(C)(C)C(=O)N4CCC[C@H](N)C4)cc3c2C(C)C)ccn1` [Example 155, (S)-1-(3-aminopiperidin-1-yl)-2-(3-isopropyl-2-(2-methylpyridin-4-yl)-1H-indol-5-yl)-2-methylpropan-1-one], in that order: 143 nM, 2040 nM and 113 nM.
For `Cc1cc(-c2[nH]c3ccc(C(C)(C)C(=O)N4CCCC(CN)C4)cc3c2C(C)C)ccn1` (stereo not drawn) [Example 156, 1-(3-(aminomethyl)piperidin-1-yl)-2-(3-isopropyl-2-(2-methylpyridin-4-yl)-1H-indol-5-yl)-2-methylpropan-1-one], in that order: 52 nM, 927 nM and 53 nM.
With `Cc1cc(-c2[nH]c3ccc(C(C)(C)C(=O)N4CCCCC4CN)cc3c2C(C)C)ccn1` (stereo not drawn) [Example 157, 1-(2-(aminomethyl)piperidin-1-yl)-2-(3-isopropyl-2-(2-methylpyridin-4-yl)-1H-indol-5-yl)-2-methylpropan-1-one], the IC50 at human TLR8 is 28 nM; on human TLR9, 997 nM; against human TLR7, 6.3 nM.
Taken in the same sequence, the figures for `Cc1cc(-c2[nH]c3ccc(C(C)(C)C(=O)N4CCC(CN)CC4)cc3c2C(C)C)ccn1` [Example 158, 1-(4-(aminomethyl)piperidin-1-yl)-2-(3-isopropyl-2-(2-methylpyridin-4-yl)-1H-indol-5-yl)-2-methylpropan-1-one] were 500 nM, 3030 nM and 79 nM.
Taken in the same sequence, the figures for `Cc1cc(-c2[nH]c3ccc(C(C)(C)C(=O)NCC4CCCCN4)cc3c2C(C)C)ccn1` (stereo not drawn) [Example 159, 2-(3-isopropyl-2-(2-methylpyridin-4-yl)-1H-indol-5-yl)-2-methyl-N-(piperidin-2-ylmethyl)propanamide] were 18 nM, 855 nM and 139 nM.
Taken in the same sequence, the figures for `Cc1cc(-c2[nH]c3ccc(C(C)(C)C(=O)NC[C@H]4CCNC4)cc3c2C(C)C)ccn1` [Example 160, (S)-2-(3-isopropyl-2-(2-methylpyridin-4-yl)-1H-indol-5-yl)-2-methyl-N-(pyrrolidin-3-ylmethyl)propanamide] were 1030 nM, 5090 nM and 164 nM.
As for `Cc1cc(-c2[nH]c3ccc(C(C)(C)C(=O)N(C)C4CCCNC4)cc3c2C(C)C)ccn1` (stereo not drawn) [Example 161, 2-(3-isopropyl-2-(2-methylpyridin-4-yl)-1H-indol-5-yl)-N,2-dimethyl-N-(piperidin-3-yl)propanamide], the IC50 on human TLR8 is 31 nM; on human TLR9, 1740 nM; on human TLR7, 42 nM.
For the compound `Cc1cc(-c2[nH]c3ccc(C(C)(C)C(=O)N(C)C4CN5CCC4CC5)cc3c2C(C)C)ccn1` (stereo not drawn) [Example 162, 2-(3-isopropyl-2-(2-methylpyridin-4-yl)-1H-indol-5-yl)-N,2-dimethyl-N-(quinuclidin-3-yl)propanamide], the IC50 on human TLR8 turned out to be 135 nM; at human TLR9, 3520 nM; against human TLR7, 24 nM.
Taken in the same sequence, the figures for `Cc1cc(-c2[nH]c3ccc(C(C)(C)C(=O)NCC4CCCNC4)cc3c2C(C)C)ccn1` (stereo not drawn) [Example 163, 2-(3-isopropyl-2-(2-methylpyridin-4-yl)-1H-indol-5-yl)-2-methyl-N-(piperidin-3-ylmethyl)propanamide] were 676 nM, 1880 nM and 238 nM.
For the compound `Cc1cc(-c2[nH]c3ccc(C(C)(C)C(=O)NCC4CCNCC4)cc3c2C(C)C)ccn1` [Example 164, 2-(3-isopropyl-2-(2-methylpyridin-4-yl)-1H-indol-5-yl)-2-methyl-N-(piperidin-4-ylmethyl)propanamide], the values for the IC50 on human TLR8, on human TLR9 and on human TLR7 were 617 nM, 2530 nM and 331 nM, respectively.
On to `Cc1cc(-c2[nH]c3ccc(C(C)(C)C(=O)N(C)C4CCNCC4)cc3c2C(C)C)ccn1` [Example 165, 2-(3-isopropyl-2-(2-methylpyridin-4-yl)-1H-indol-5-yl)-N,2-dimethyl-N-(piperidin-4-yl)propanamide], for which the results for the IC50 at human TLR8, at human TLR9 and against human TLR7 were 63 nM, 908 nM and 61 nM, respectively.

Values taken from patent publication US11420973B2, “Amide substituted indole compounds useful as TLR inhibitors” (BRISTOL-MYERS SQUIBB COMPANY, priority 2017, dated 2022).
